Laboratory results: PubChem BioAssay (NCI)
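Dose response: 5 concentrations. Exposure: 48 h. Format: 96-well plates. Endpoint: linear interpolation; highest concentration if not reached. TGI marks complete inhibition of growth.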

Assays:
Assay in all cases: NCI tumour cell line growth inhibition, 48 h
HOP-62 NSCLC = test system: HOP-62 NSCLC
SK-MEL-5 melanoma = test system: SK-MEL-5 melanoma
DLD-1 colon = test system: DLD-1 colon
DMS 114 small cell lung = test system: DMS 114 small cell lung
KM20L2 colon = test system: KM20L2 colon
RXF-631 renal = test system: RXF-631 renal
XF 498 CNS = test system: XF 498 CNS
LXFL 529 NSCLC = test system: LXFL 529 NSCLC
M19-MEL melanoma = test system: M19-MEL melanoma
SNB-78 CNS = test system: SNB-78 CNS
DMS 273 small cell lung = test system: DMS 273 small cell lung
HOP-18 NSCLC = test system: HOP-18 NSCLC
P388 leukemia = test system: P388 leukemia
P388/ADR leukemia = test system: P388/ADR leukemia
SN12K1 renal = test system: SN12K1 renal

Nc1ncnc2c1ncn2C(=O)NC12CC3CC(CC(C3)C1)C2
TGI (HOP-62 NSCLC): > 100 µM
TGI (SK-MEL-5 melanoma): > 100 µM

N#Cc1c(OCCF)c2ccccc2n2c1nc1ccccc12
TGI (HOP-62 NSCLC): > 100 µM
TGI (SK-MEL-5 melanoma): > 100 µM

O=C1OC[C@@H]2Cc3c([nH]c4ccccc34)[C@@H](c3ccc(O)cc3)N12
TGI (HOP-62 NSCLC): > 84.6 µM
TGI (SK-MEL-5 melanoma): 33.2 µM

O=C1C(Br)=Cc2c(Cl)sc(Cl)c21
TGI (HOP-62 NSCLC): 28.6 µM
TGI (SK-MEL-5 melanoma): > 53.7 µM

C/C(=N/NC(=S)Nc1cccc(C)c1)c1ccccn1
TGI (HOP-62 NSCLC): 4.98 µM
TGI (SK-MEL-5 melanoma): 1.6 µM

O=C1C(C=NCCc2c[nH]c3ccccc23)C(C(F)(F)F)=NN1c1nc2ccccc2s1 (stereo not given)
TGI (HOP-62 NSCLC): 46.9 µM
TGI (SK-MEL-5 melanoma): 37.1 µM

C=CCCCC12CCCc3cccc(c31)NC2=O (stereo not given)
TGI (DLD-1 colon): 42.4 µM
TGI (DMS 114 small cell lung): 33 µM
TGI (HOP-62 NSCLC): > 100 µM
TGI (KM20L2 colon): 47 µM
TGI (RXF-631 renal): 55.6 µM
TGI (SK-MEL-5 melanoma): 34.2 µM
TGI (XF 498 CNS): 41.7 µM

O=C1C(Cl)N(c2ccccc2)C1c1c[nH]c2ccccc12 (stereo not given)
TGI (DMS 114 small cell lung): > 100 µM
TGI (HOP-62 NSCLC): > 100 µM
TGI (KM20L2 colon): > 100 µM
TGI (LXFL 529 NSCLC): > 100 µM
TGI (M19-MEL melanoma): > 100 µM
TGI (SK-MEL-5 melanoma): > 100 µM
TGI (XF 498 CNS): > 100 µM

O=C(OCc1ccccc1)OOC(=O)OCc1ccccc1
TGI (DLD-1 colon): > 100 µM
TGI (DMS 114 small cell lung): > 100 µM
TGI (HOP-62 NSCLC): > 100 µM
TGI (KM20L2 colon): > 100 µM
TGI (LXFL 529 NSCLC): > 100 µM
TGI (M19-MEL melanoma): > 100 µM
TGI (SK-MEL-5 melanoma): > 100 µM
TGI (SNB-78 CNS): > 100 µM

CO/N=C1/c2sccc2[C@H](NC(=O)CNC(=O)OC(C)(C)C)[C@@H]1O
TGI (HOP-62 NSCLC): > 100 µM
TGI (SK-MEL-5 melanoma): > 100 µM

C=CC/C(C(=O)OC)=C(/C(=O)OC)N(CCC)CCC
TGI (HOP-62 NSCLC): > 100 µM
TGI (SK-MEL-5 melanoma): > 100 µM

CC(C)CCNC(=O)c1ccc(CNC(=O)/C=C/c2ccc(OCc3ccccc3)cc2)cc1
TGI (HOP-62 NSCLC): > 100 µM
TGI (SK-MEL-5 melanoma): > 100 µM

c1ccc2c(c1)CCCN1CCc3ccccc3C21 (stereo not given)
TGI (HOP-62 NSCLC): > 100 µM
TGI (SK-MEL-5 melanoma): 70.9 µM

COC(=O)C1CC(C=[N+](C)C)=C(SC)N1 (stereo not given)
TGI (HOP-62 NSCLC): > 100 µM
TGI (SK-MEL-5 melanoma): > 100 µM

O=C(CCc1ccc(O)cc1)c1c(O)cc(O)cc1OC1OC(CO)C(O)C(O)C1O (stereo not given)
TGI (HOP-62 NSCLC): > 100 µM
TGI (SK-MEL-5 melanoma): > 100 µM

CN1CN(c2ccccc2)C2(CCN(CCCC3(c4cccs4)OCCO3)CC2)C1=O
TGI (HOP-62 NSCLC): > 100 µM
TGI (SK-MEL-5 melanoma): > 100 µM

CCOc1ccc(N=C/C=C(\Cl)c2ccc3ccccc3c2)cc1
TGI (HOP-62 NSCLC): 29.8 µM
TGI (SK-MEL-5 melanoma): 31 µM

CC1=CC=CC(C)(C)CC1(O[Si](C)(C)C)C(F)(F)F (stereo not given)
TGI (HOP-62 NSCLC): > 100 µM
TGI (SK-MEL-5 melanoma): > 100 µM

CCOP(=O)(OCC)/C(F)=C/c1ccccc1
TGI (HOP-62 NSCLC): > 100 µM
TGI (SK-MEL-5 melanoma): > 100 µM

CC(C)=CC1C(C(=O)O)C1(C)C (stereo not given)
TGI (DLD-1 colon): > 750 µM
TGI (DMS 114 small cell lung): > 750 µM
TGI (DMS 273 small cell lung): > 750 µM
TGI (HOP-18 NSCLC): > 750 µM
TGI (HOP-62 NSCLC): > 750 µM
TGI (KM20L2 colon): > 750 µM
TGI (M19-MEL melanoma): > 750 µM
TGI (P388 leukemia): > 750 µM
TGI (P388/ADR leukemia): > 750 µM
TGI (SK-MEL-5 melanoma): > 750 µM
TGI (SN12K1 renal): > 750 µM
TGI (XF 498 CNS): > 75 µM

N#CSCc1cccc(Nc2cc(=O)[nH]c(=O)[nH]2)c1
TGI (HOP-62 NSCLC): > 100 µM
TGI (SK-MEL-5 melanoma): 99.1 µM

CC(C)c1c(P(=O)(c2ccccc2)c2ccccc2)n(C)c2ccccc12
TGI (HOP-62 NSCLC): > 100 µM

COC(c1ccc(C(C)(C)C)cc1)(c1ccc(C(C)(C)C)cc1)c1cc(C(O)(c2cc(C(OC)(c3ccc(C(C)(C)C)cc3)c3ccc(C(C)(C)C)cc3)c(C)cc2C)c2cc(C(OC)(c3ccc(C(C)(C)C)cc3)c3ccc(C(C)(C)C)cc3)c(C)cc2C)c(C)cc1C
TGI (HOP-62 NSCLC): > 100 µM
TGI (SK-MEL-5 melanoma): > 100 µM

Cc1nc2cc(C(F)(F)F)ccc2[nH]c1=O
TGI (HOP-62 NSCLC): > 100 µM
TGI (SK-MEL-5 melanoma): > 100 µM

C[C@@H]1C[C@H](O)[C@]2(O)O[C@@H]3C[C@@]4(C=O)[C@@H](CC=C5[C@@H]4CC[C@]4(C)[C@@H](C6=CC(=O)OC6)CC[C@]54O)C[C@H]3O[C@@H]2O1
TGI (HOP-62 NSCLC): 0.0319 µM
TGI (SK-MEL-5 melanoma): 0.133 µM

O=C1/C(=C/c2ccc(F)cc2)CNC/C1=C\c1ccc(F)cc1
TGI (HOP-62 NSCLC): 4.56 µM
TGI (SK-MEL-5 melanoma): 3.02 µM

CCOC(=O)C(=O)N1C(C)=C(C(=O)OCC)CC(C(=O)OCC)=C1C
TGI (HOP-62 NSCLC): > 100 µM
TGI (SK-MEL-5 melanoma): > 100 µM

NCCCC(N)C(=O)O (stereo not given)
TGI (HOP-62 NSCLC): > 100 µM
TGI (SK-MEL-5 melanoma): > 100 µM

O=C(O[C@H](/C=C/c1ccccc1)P1(=O)N(Cc2ccccc2)[C@@H]2CCCC[C@H]2N1Cc1ccccc1)c1ccccc1
TGI (HOP-62 NSCLC): > 100 µM
TGI (SK-MEL-5 melanoma): 3.88 µM

Brc1ccc2c3c1[C@@H]1O[C@@H]1c1cccc(c1-3)[C@@H]1O[C@H]21
TGI (HOP-62 NSCLC): 43.1 µM
TGI (SK-MEL-5 melanoma): 33.4 µM

O=c1c2cc(I)ccc2[nH]c(=S)n1Cc1ccccc1
TGI (HOP-62 NSCLC): 63 µM
TGI (SK-MEL-5 melanoma): > 100 µM

CC1=CC(=O)N(n2c(C)n[nH]c2=O)C1=O
TGI (SK-MEL-5 melanoma): > 100 µM

CCN(CC)CCCn1c(=O)c2cccnc2n2c3c(=O)n(C)c(=O)n(C)c3nc12
TGI (HOP-62 NSCLC): > 100 µM
TGI (SK-MEL-5 melanoma): > 100 µM

CC(=O)Nc1ccc(Cl)c(Cl)c1
TGI (DLD-1 colon): > 100 µM
TGI (DMS 114 small cell lung): > 100 µM
TGI (DMS 273 small cell lung): > 100 µM
TGI (HOP-62 NSCLC): > 100 µM
TGI (KM20L2 colon): > 100 µM
TGI (LXFL 529 NSCLC): > 100 µM
TGI (M19-MEL melanoma): > 100 µM
TGI (SNB-78 CNS): > 100 µM

COC1C=CC23c4cc5c(cc4C(O)OC2CN(C)C3C1)OCO5 (stereo not given)
TGI (DMS 114 small cell lung): 6.05 µM
TGI (DMS 273 small cell lung): 6.87 µM
TGI (HOP-62 NSCLC): 17.9 µM
TGI (KM20L2 colon): 9.1 µM
TGI (LXFL 529 NSCLC): 9.55 µM
TGI (M19-MEL melanoma): 8.82 µM
TGI (SK-MEL-5 melanoma): 1.65 µM
